This is an account of results in patent US20230093099A1, “COMPOUNDS AND METHODS OF TREATING CANCERS” (CULLGEN (SHANGHAI), INC., priority 2019, published 2023).

Where two headings read alike, the source gives them in different places.

Holding throughout (assay type): cell-based
The test system of one assay is RS4;11 cells. Put plainly: Cell viability assay (CellTiter-Glo) in RS4;11 cells. The following applies: for IC50: Homo sapiens, 72 h; for cell viability inhibition in combination with pomalidomide: RS4;11, 3 days, pomalidomide at 10 μM (FIG. 4). Summed up:
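Three-day compound treatment of RS4;11 ALL cells (5000/well, 3-fold dilution series of 8 or 12 points), with IC50 from a nonlinear least-squares fit to CellTiter-Glo viability data.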
Background: In ATP-based viability assays light output follows the ATP content of the culture.

The subject of a further assay is p-STAT5. The assay can be described thus: Immunoblot of p-STAT5 (downstream signaling) in HEL cells. The following applies: immunoblot (FIG. 1). The protocol: (§1) To confirm JA-189 and JA-213 are true JAK degraders, HEL cell were treated with these two compounds at various compounds concentrations.
(§2) HEL, RS4;11, MV4;11, Kasumi-1 and other cells were cultured at 37° C. with 5% CO2 in RPMI 1640 or DMEM Medium supplemented with 10% fetal bovine serum. Cells were authenticated using the short tandem repeat (STR) assays. Mycoplasma test results were negative.
(§3) Rabbit anti-JAK1 antibody (3344S), anti-JAK2 antibody (3230S), anti-JAK3 antibody (8827S), anti-TYK2 antibody (14193S), anti-FLT3 antibody (3462S), anti-RET antibody (14556S), anti-phospho-STAT3 (Tyr705) antibody (9145S) and anti-phospho-STAT5 (Tyr694) antibody (4322S) were purchased from Cell Signaling Technology. Rabbit anti-GSPT1 antibody (ab126090) was purchased from Abcam. HRP-conjugated anti-α-tubulin antibody was produced in house. Media and other cell culture reagents were purchased from Thermo Fisher. The CellTiter-Glo Luminescent Assay kit was purchased from Promega.
(§4) Cultured cells were washed with cold PBS once and lysed in cold RIPA buffer supplemented with protease inhibitors and phosphatase inhibitors (Beyotime Biotechnology). […] Total protein concentrations in the lysates were determined by BCA assays (Beyotime Biotechnology). […] Protein bands were quantitated using the accompanied software provided by Bio-Rad.
On the technique in general: A western blot detects proteins with antibodies after separation by electrophoresis.

A further assay deals with T1, JAK3 (Homo sapiens, UniProt P52333).
T1 construct: immunoblot of JAK1/2/3 proteins expressed in HEL cells; endogenous in cells; host or cells: HEL cells
T1 sequence (P52333 1-1124): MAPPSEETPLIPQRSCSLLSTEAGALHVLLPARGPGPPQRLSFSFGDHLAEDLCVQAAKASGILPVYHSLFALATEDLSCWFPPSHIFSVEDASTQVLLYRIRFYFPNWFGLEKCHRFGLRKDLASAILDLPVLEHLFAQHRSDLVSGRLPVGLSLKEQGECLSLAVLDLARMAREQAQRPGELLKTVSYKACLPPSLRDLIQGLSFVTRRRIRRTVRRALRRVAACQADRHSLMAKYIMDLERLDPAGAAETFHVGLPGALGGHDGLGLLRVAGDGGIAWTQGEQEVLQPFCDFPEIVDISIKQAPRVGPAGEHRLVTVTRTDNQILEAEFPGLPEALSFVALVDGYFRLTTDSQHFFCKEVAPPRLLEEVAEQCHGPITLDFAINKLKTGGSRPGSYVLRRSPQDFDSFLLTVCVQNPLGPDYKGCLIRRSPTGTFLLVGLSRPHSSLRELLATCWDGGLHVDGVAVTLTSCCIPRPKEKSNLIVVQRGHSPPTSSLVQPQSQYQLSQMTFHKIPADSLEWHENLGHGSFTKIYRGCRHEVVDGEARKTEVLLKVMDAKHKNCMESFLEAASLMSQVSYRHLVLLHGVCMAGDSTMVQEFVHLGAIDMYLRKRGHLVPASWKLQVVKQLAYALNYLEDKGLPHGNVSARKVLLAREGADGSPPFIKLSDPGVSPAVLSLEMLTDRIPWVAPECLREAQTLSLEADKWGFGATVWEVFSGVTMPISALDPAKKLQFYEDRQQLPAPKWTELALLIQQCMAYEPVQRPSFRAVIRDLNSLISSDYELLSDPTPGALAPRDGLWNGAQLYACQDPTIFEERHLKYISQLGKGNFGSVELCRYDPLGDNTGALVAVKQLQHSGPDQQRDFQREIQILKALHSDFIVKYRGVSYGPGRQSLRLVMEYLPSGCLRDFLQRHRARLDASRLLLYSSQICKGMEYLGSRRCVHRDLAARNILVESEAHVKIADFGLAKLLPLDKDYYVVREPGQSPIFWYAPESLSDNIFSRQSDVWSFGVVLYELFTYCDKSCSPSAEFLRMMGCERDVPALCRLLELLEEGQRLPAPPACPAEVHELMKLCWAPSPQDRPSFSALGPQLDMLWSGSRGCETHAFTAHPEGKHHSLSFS
The assay can be described thus: Immunoblot of JAK3 protein level in RS4;11 cells. The following applies: immunoblot (FIG. 2). The protocol:
as §1, §2, §3, §4

For the next assay, the target named is T2, JAK2-V617F (Homo sapiens, UniProt O60674, V617F).
T2 construct: immunoblot of JAK1/2/3 proteins expressed in HEL cells; endogenous in cells; host or cells: HEL cells
T2 sequence (O60674 whole entry V617F): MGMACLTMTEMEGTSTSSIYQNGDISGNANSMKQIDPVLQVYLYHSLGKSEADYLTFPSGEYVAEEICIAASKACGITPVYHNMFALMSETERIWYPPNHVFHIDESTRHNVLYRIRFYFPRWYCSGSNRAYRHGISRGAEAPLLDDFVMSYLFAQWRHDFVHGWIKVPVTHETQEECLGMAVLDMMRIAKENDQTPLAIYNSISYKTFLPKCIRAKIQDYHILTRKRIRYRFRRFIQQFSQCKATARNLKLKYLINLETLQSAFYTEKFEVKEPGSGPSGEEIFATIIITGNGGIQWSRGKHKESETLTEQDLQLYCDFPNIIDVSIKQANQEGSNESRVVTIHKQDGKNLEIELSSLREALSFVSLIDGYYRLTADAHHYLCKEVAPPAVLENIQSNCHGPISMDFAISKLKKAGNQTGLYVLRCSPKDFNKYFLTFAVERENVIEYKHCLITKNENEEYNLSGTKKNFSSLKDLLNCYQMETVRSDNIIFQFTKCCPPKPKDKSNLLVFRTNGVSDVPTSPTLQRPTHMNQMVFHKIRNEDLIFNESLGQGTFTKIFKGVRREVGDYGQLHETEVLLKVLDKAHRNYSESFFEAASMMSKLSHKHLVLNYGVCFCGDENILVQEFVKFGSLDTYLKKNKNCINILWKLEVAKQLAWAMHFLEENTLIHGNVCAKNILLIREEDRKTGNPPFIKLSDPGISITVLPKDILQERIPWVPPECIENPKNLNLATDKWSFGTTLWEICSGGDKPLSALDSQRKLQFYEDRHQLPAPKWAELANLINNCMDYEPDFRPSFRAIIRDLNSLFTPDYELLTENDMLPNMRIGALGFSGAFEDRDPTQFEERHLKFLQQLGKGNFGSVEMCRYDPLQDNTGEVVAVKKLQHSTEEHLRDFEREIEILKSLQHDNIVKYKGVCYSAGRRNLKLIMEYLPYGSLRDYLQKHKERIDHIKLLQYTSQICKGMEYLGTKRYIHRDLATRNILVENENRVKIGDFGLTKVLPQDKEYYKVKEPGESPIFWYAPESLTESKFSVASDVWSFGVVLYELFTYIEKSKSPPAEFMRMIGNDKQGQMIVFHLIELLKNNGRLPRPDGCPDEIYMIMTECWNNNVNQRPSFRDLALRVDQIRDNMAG
Put plainly: Immunoblot of JAK2 protein level in HEL cells. The note with it: 24 hours; for JAK2 protein level: HEL cells, immunoblot (FIG. 1). As to the method: HEL cells harboring JAK2-V617F mutation were treated with compounds at indicated concentrations for 24 hours. […] The concentrations required to reduce JAK2-V617 by 50% (DC50) were below 60 nM for compound JA-213.
as §2, §3
(§5) Cultured cells were washed with cold PBS once and lysed in cold RIPA buffer supplemented with protease inhibitors and phosphatase inhibitors (Beyotime Biotechnology). The solutions were then incubated at 4° C. for 30 minutes with gentle agitation to fully lyse cells. Cell lysates were centrifuged at 13,000 rpm for 10 minutes at 4° C. and pellets were discarded. Total protein concentrations in the lysates were determined by BCA assays (Beyotime Biotechnology). Cell lysates were mixed with Laemmli loading buffer to 1× and heated at 99° C. for 5 min. Proteins were resolved on SDS-PAGE and visualized by chemiluminescence. Images were taken by a ChemiDoc MP Imaging system (Bio-Rad). Protein bands were quantitated using the accompanied software provided by Bio-Rad.

In another assay the target is T3, JAK1 (Homo sapiens, UniProt P23458).
T3 construct: immunoblot of JAK1/3 proteins expressed in RS4;11 cells; endogenous in cells; host or cells: RS4;11 cells
T3 sequence (P23458 whole entry): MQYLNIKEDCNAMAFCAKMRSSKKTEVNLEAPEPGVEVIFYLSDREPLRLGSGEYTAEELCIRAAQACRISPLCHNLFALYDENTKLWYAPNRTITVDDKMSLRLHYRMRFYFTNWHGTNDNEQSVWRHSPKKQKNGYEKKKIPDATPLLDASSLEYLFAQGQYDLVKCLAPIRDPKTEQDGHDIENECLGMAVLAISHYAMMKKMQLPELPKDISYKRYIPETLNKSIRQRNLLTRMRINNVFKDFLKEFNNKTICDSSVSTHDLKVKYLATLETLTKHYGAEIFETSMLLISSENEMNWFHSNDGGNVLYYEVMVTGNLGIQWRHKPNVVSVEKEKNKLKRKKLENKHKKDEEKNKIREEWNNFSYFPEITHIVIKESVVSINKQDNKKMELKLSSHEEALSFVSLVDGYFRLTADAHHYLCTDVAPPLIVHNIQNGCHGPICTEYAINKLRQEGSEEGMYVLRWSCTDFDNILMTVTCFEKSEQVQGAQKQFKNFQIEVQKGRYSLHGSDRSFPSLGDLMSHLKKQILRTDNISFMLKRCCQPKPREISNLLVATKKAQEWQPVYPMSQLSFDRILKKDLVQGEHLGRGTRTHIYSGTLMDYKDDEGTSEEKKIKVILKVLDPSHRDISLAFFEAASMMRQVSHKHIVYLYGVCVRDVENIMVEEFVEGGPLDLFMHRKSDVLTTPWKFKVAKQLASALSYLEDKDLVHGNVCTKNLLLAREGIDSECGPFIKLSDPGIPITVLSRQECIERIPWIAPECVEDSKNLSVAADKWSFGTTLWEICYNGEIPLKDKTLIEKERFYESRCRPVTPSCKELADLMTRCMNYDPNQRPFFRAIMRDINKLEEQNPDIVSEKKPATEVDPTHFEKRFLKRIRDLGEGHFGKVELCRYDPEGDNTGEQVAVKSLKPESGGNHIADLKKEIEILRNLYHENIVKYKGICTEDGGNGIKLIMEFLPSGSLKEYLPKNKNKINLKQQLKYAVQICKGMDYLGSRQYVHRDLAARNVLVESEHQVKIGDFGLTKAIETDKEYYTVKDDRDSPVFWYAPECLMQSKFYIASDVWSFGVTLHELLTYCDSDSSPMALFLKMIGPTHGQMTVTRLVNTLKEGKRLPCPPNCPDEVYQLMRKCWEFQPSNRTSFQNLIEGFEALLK
Put plainly: Immunoblot of JAK1 protein level in RS4;11 cells. The following applies: 24 hours; for JAK1 protein level: immunoblot (FIG. 2). The protocol: RS4;11 cells were treated with compounds at indicated concentrations for 24 hours. […] The concentrations required to reduce JAK1 by 50% (DC50) were below 5 nM and 35 nM for compound JA-189 and JA213, respectively.
as §2, §3, §5

The next assay concerns NCI-H929 cells. The assay can be described thus: Cell viability assay (CellTiter-Glo) in NCI-H929 cells. The following applies: Homo sapiens, 72 h, NCI-H929, Multiple Myeloma, 3 days. The protocol:
MV4;11, RS4;11, Kasumi-1, HEL and other cells were treated with NVP-BSK805, TG101209 or selected degraders for 3 days at indicated concentrations following a 3-fold serial dilution.
as §2
Cells were seeded at a density of 5000 cells per well in 96-well assay plates and treated with test compounds following a 8-point or 12-point 3-fold serial dilution. Three days later, cell viability was determined using the CellTiter-Glo assay kit according to the manufacturer's instructions. The dose-response curves were determined and IC50 values were calculated using the GraphPad Prism software following a nonlinear regression (least squares fit) method.

Setting [1] is: RS4;11 ALL cells treated for three days, read-out: cell viability inhibition IC50.
Setting [2] is: RS4;11 cells, cell viability, 3 days, CellTiter-Glo, read-out: IC50.

Usually IC50 stands for the midpoint of a concentration-inhibition curve. Take `O=C1CCC(N2C(=O)c3ccc(NCCCCCC(=O)N4CCC(n5cc(-c6cnc7cccc(-c8cc(F)c(CN9CCOCC9)c(F)c8)c7n6)cn5)CC4)cc3C2=O)C(=O)N1` (stereo not drawn) [JA-189, 5-((6-(4-(4-(8-(3,5-difluoro-4-(morpholinomethyl)phenyl)quinoxalin-2-yl)-1H-pyrazol-1-yl)piperidin-1-yl)-6-oxohexyl)amino)-2-(2,6-dioxopiperidin-3-yl)isoindoline-1,3-dione]: the figures for the IC50 with RS4;11 cells (setting [1]), in the assay on RS4;11 cells (setting [2]) and in the assay on NCI-H929 cells were less than 0.1 µM, 0.00203 µM and 0.106 µM, respectively. Moreover, the “cell viability inhibition in combination with pomalidomide” value with RS4;11 cells is reported as “greatly reduce the potencies of the degraders”. Moreover, in the assay with p-STAT5, the “down stream signaling, p-STAT5 band” value is “weaker bands of p-STAT3 and p-STAT5”. Further, the JAK3 protein level entry on JAK3 is “even better activity in reducing the JAK1 and JAK3 protein levels”. In addition, the JAK2 protein level result on JAK2-V617F was “able to reduce JAK1, JAK2 and JAK3 protein levels”. In addition, the JAK1 protein level result on JAK1 is “even better activity in reducing the JAK1 and JAK3 protein levels”. The DC50 at JAK1 (immunoblot, read-out: concentration required to reduce JAK1 by 50% (DC50)) was less than 0.005 µM.
As to `CS(=O)(=O)c1ccc(-c2cccc3nc(Nc4ccc(N5CCN(CC(=O)NCCCCCCCCNc6ccc7c(c6)C(=O)N(C6CCC(=O)NC6=O)C7=O)CC5)cc4)nn23)cc1` (stereo not drawn) [JA-213], the concentration for half-maximal inhibition (IC50) in the assay on RS4;11 cells (setting [1]) was less than 0.1 µM; in the assay on RS4;11 cells (setting [2]), 0.00845 µM; in the assay with NCI-H929 cells, 0.124 µM. Also, the “cell viability inhibition in combination with pomalidomide” value in the assay with RS4;11 cells is “greatly reduce the potencies of the degraders”. Moreover, the “down stream signaling, p-STAT5 band” value in the assay with p-STAT5 was “weaker bands of p-STAT3 and p-STAT5”. Also, on JAK3, the JAK3 protein level entry is “even better activity in reducing the JAK1 and JAK3 protein levels”. For the same compound, at JAK2-V617F (HEL cells harboring JAK2-V617F, immunoblot, read-out: concentration required to reduce JAK2-V617 by 50% (DC50)), the DC50 is less than 0.06 µM. Also, at JAK2-V617F, the JAK2 protein level result was “able to reduce JAK1, JAK2 and JAK3 protein levels”. The JAK1 protein level result on JAK1 was “even better activity in reducing the JAK1 and JAK3 protein levels”.
